Data reported in US6900195B2, “Manzamines for treatment of drug resistant infection” (The University of Mississippi, priority 2000, dated 2005).
Converted amounts (≈) assume the structure as drawn. Read-outs that look alike come from different tables or passages of the source.

Tests used:
[1] = test system: human lung and colon carcinoma cells; conditions: cited from earlier work
M. tuberculosis (H37Rv) = assay: microbe, parasite or virus in culture; format: cell-based, Mycobacterium tuberculosis
P. berghei [2] = assay: In vivo antimalarial activity in P. berghei-infected mice; set-up: species or system Plasmodium berghei; conditions: three 50 μmoles/kg i.p. doses
Vero cells [3] = assay: In vitro cytotoxicity to mammalian cells (neutral red)
T. gondii (C56 strain) = assay: Survival of mice infected orally with T. gondii cysts; format: in vivo, Toxoplasma gondii
Excerpt: Toxoplasma gondii. […] Untreated infected mice in the control group started dying 10 days post infection. Mice treated with manzamine A died nine days after treatment stopped. […] FIGS. 1 and 2 provide the graphic results of this experiment. […] Treatment was begun on Day 1 following in infection and continued for 8 days.

[4] = Cytotoxicity in human PBM cells; conditions: human
P. berghei [5] = assay: In vivo antimalarial activity in P. berghei-infected mice; set-up: species or system Plasmodium berghei; conditions: for reduction of parasitemia: single i.p. 100 μmoles/kg, comparison 2 days after treatment
Experimental: In Vivo Evaluation of Antimalarial Activity. (National University of Singapore by Dr. Kenny Ang, confirmation of activity at the WHO). Four-week-old, male Swiss albino mice are injected intraperitoneally with 10^7 P. berghei-infected mouse erythrocytes. On day 2 after infection, mice are treated with a single intraperitoneal injection of either the test compound or a reference drug (chloroquine or artemisinin) within a concentration range of 50 to 1,000 μmol/kg of body weight. All test compounds and reference drugs were injected as a suspension in 5% Tween 60 saline. For oral administration, the test compounds are given as a suspension in corn oil, and mice are given two consecutive doses of test compound at 100 μmol/kg on days 2 and 3 after infection. […] Control mice receive only 5% Tween 60 saline or corn oil. Survival of mice was recorded daily. Percent parasitemia is determined microscopically (magnification, ×1,000) from mouse-tail blood smears that were fixed with methanol and stained with Giemsa stain. Blood samples from individual P. berghei-infected mice were collected at various times after a single intraperitoneal treatment of 100 μmol/kg of manzamine A per kg on day 3 after infection. For transmission electron microscopy, approximately 0.5-ml blood samples are fixed with 3% glutaraldehyde in 0.1 M cacodylate buffer (pH 7.4), postfixed with 1% osmium tetroxide and 1% uranyl acetate, dehydrated in a graded ethanol series, and embedded in Spurr's resin. The resulting blocks are cut by using a Reichert-Jung Ultracut with a glass knife. Ultra thin sections were mounted on 150-mesh copper grids, stained with 1% uranyl acetate and 1% lead citrate, and examined with a JEM-100CX electron microscope. Manzamine in plasma was detected by liquid chromatography=selected reaction monitoring-mass spectrometry (LC-SRM-MS). P. berghei-infected mice will be treated with the alkaloid (100 μmol/kg intraperitoneally) on day 3 post infection. Blood samples are collected from individual mice at specific times up to 48 h posttreatment. Plasma was isolated by centrifugation and extracted with 95% acetonitrile containing 5 mM ammonium acetate. The plasma extract was filtered, and 5 μl samples are injected into a Shimadzu LC-10 AD microbore high-pressure liquid chromatograph interfaced with a Perkin-Elmer API 300 turbo-ion-spray tandem mass spectrometer. Samples are separated on a Prodigy C-18 column (30 by 1 mm, 5-μm inner diameter) by elution at 50 μl/min with 86% acetonitrile containing 5 mM ammonium acetate. Manzamine can be detected by monitoring the transition of the protonated manzamine precursor ion from the (M+H)^+ to the (M+H —H2O)^+. Peak areas for the product ion chromatograms are integrated, and concentrations are determined from a linear calibration curve for manzamine in spiked plasma. The limit of detection for the manzamines in plasma by LC-SRM-MS is 2.5 pg. Results are subjected to a nonparametric statistical assessment with a confidence interval of 99% (p<0.01) by using Analyse-it software linked to Microsoft Excel. The program uses the Mann-Whitney U test to determine significant differences between two groups of data.

[6] = test system: P. falciparum W2 clone (Indochina, chloroquine-resistant); assay: In vitro antimalarial activity, parasite LDH assay, W2 clone; format: cell-based, Plasmodium falciparum; conditions: for IC50: Plasmodium falciparum
[7] = test system: Plasmodium yoelii NS malaria strain; assay: WHO Peters 4-day assay, Plasmodium yoelii NS in mice; format: in vivo
Excerpt: To confirm the activity of the manzamines against malaria the World Health Organization examined manzamine A against the Plasmodium yoelii NS malaria strain in mice (Peters 4-day assay-Handbook of Animal Models of Infection Chapter 92, Academic Press 1999).

HIV-1 in human PBM cells = assay: Anti-HIV activity in human PBM cells; format: cell-based
[8] = test system: P. falciparum D6 clone (Sierra Leone, chloroquine-sensitive); assay: In vitro antimalarial activity, parasite LDH assay, D6 clone; format: cell-based, Plasmodium falciparum; conditions: for IC50: Plasmodium falciparum
human PBM cells = assay: Cytotoxicity in human PBM cells; conditions: read-out: Cytotoxicity in human PBM cells IC50
[9] = Cytotoxicity of microbial metabolites versus parent compounds (cells not stated); format: cell-based
[10] = test system: P-388 mouse lymphoma cells; assay: Cytotoxicity against P-388 mouse lymphoma cells; format: cell-based
P. berghei N strain = assay: Oral antimalarial activity against P. berghei N strain; format: in vivo, Plasmodium berghei; conditions: orally in DMSO, preliminary results
Vero cells [11] = conditions: African green monkey, 48 h
[12] = test system: P-388 mouse lymphoma cells; conditions: cited from earlier work
[13] = Cytotoxicity against human lung and colon carcinoma cells; format: cell-based
[14] = M. tuberculosis H37Rv, test concentration not given
[15] = Mycobacterium tuberculosis, M. tuberculosis H37Rv, read-out: MIC
[16] = P. berghei-infected mice, single i.p. dose 100 μmoles/kg
[17] = P. falciparum W2 clone, read-out: W2 Clone IC50

## kauluamine
[1]
  cytotoxicity: inactive

## CO[C@H]1/C=C/O[C@@]2(C)Oc3c(C)c(O)c4c(O)c(c(/C=N/N5CCN(C)CC5)c(O)c4c3C2=O)NC(=O)/C(C)=C\C=C\[C@H](C)[C@H](O)[C@@H](C)[C@@H](O)[C@@H](C)[C@H](OC(C)=O)[C@@H]1C [Rifampin, reference compound]
M. tuberculosis (H37Rv)
  % Inhibition: 100%
M. tuberculosis (H37Rv); Mycobacterium tuberculosis, H37RV
  MIC: 0.25 µg/mL (≈ 0.304 µM)

## O[C@]12C=C(c3nccc4c3[nH]c3ccccc34)[C@@H]3CCN(CCCC/C=C\CC1)C[C@@]31C[C@@H]3/C=C\CCCCN3[C@@H]12 [Manzamine A]
P. berghei [2]
  outcome after three doses: curative and totally clears the parasite
Vero cells [3]
  Cytotoxicity TC50: 290 ng/mL
M. tuberculosis (H37Rv); [14]
  % Inhibition: 99%
M. tuberculosis (H37Rv); [15]
  MIC: 1.56 µg/mL (≈ 2.84 µM)
T. gondii (C56 strain); 8 mg/kg i.p. once a day for 8 days
  time of death after treatment stopped: nine
T. gondii (C56 strain); 8 mg/kg i.p. once a day for 8 days (paralysis, blindness, twirling)
  signs or behavior during treatment: no uncommon signs or behavior
T. gondii (C56 strain); 8 mg/kg i.p. once a day for 8 days, all control mice had died by day 16
  survival at day 16 of infection: all the manzamine A treated mice were alive
T. gondii (C56 strain); SW mice, 10 cysts C56 orally, 8 mg/kg i.p. once a day for 8 days from day 1
  time to death: significant prolongation of time to death
[4]
  IC50: 5.1 µM
P. berghei [5]; P. berghei-infected mice
  reduction of parasitemia: comparable reduction of parasitemia
P. berghei [5]; P. berghei-infected mice, two oral doses 100 μmoles/kg
  reduction of parasitemia compared with control mice: 90%
P. berghei [5]; mice
  in vivo activity against P. berghei relative to chloroquine or artemisinin: in vivo activity against P. berghei greater than chloroquine or artemisinin
[6]; W2, read-out: W2 Clone IC50
  IC50: 0.008 µg/mL (≈ 0.0146 µM)
[6]; Vero TC50 relative to W2 IC50
  Selectivity index (SI), W2 clone: SI = 36
[7]; Plasmodium yoelii, 96 h
  ED50: < 5 mg/kg
[7]; given orally in DMSO or carboxy-methylcellulose-based formulation
  activity relative to Na artesunate: more active than Na artesunate
HIV-1 in human PBM cells; Human immunodeficiency virus 1, PBMC
  EC50: 12.9 µM
[8]; D6, read-out: D6 Clone IC50
  IC50: 0.0045 µg/mL (≈ 0.0082 µM)
[8]; Vero TC50 relative to D6 IC50
  Selectivity index (SI), D6 clone: SI = 64

## (−)-12, 34-Oxamanzamine F
Human PBM cells
  IC50: 75.2 µM
HIV-1 in human PBM cells; human PBM cells
  EC50: 20.4 µM

## O[C@]12C=C(c3nccc4c3[nH]c3ccccc34)[C@@H]3CCN(CCCC/C=C\CC1)C[C@@]31CC/C=C\CCCCN[C@@H]12 [Manzamine J]
M. tuberculosis (H37Rv); [14]
  % Inhibition: 99%
M. tuberculosis (H37Rv); [15]
  MIC: < 12.5 µg/mL

## O=CC1=C[C@@]2(O)CC/C=C\CCCCN3CC[C@@H]1[C@]1(CC4/C=C\CCCCN4[C@H]12)C3 (some centres unmarked) [Ircinal A]
M. tuberculosis (H37Rv); M. tuberculosis H37Rv
  MIC: <12.5 µg/mL
M. tuberculosis (H37Rv); [14]
  % Inhibition: 98%
[9]
  cytotoxicity relative to the parent compounds: less cytotoxic than the parent compounds
Human PBM cells
  IC50: 34.2 µM
P. berghei [5]; mice
  activity in vivo against malaria: failed to show any activity in vivo against malaria
HIV-1 in human PBM cells; human PBM cells
  EC50: 45.2 µM

## 15,16,32,33-tetrahydro-ent-8-hydroxymanzamine A
M. tuberculosis (H37Rv); M. tuberculosis H37Rv
  MIC: <6.25 µg/mL
M. tuberculosis (H37Rv); [14]
  % Inhibition: 100%

## ent-8-hydroxy-manzamine A [ent-8-Hydroxymanzamine A]
M. tuberculosis (H37Rv); M. tuberculosis H37Rv
  MIC: 3.13 µg/mL
M. tuberculosis (H37Rv); [14]
  % Inhibition: 99%
Human PBM cells
  IC50: 4.9 µM
P. berghei [5]; P. berghei-infected mice
  reduction of parasitemia: efficiently reduced parasitemia
P. berghei [5]; [16]
  average survival days: 9 to 11 days
P. berghei [5]; mice
  in vivo activity against P. berghei relative to chloroquine or artemisinin: in vivo activity against P. berghei greater than chloroquine or artemisinin
HIV-1 in human PBM cells; human PBM cells
  EC50: 44.2 µM
[10]
  cytotoxicity IC50: 0.25 µg/mL

## 8-hydroxymanzamine
P. berghei N strain
  ED50: < 10 mg/kg

## C[C@@H]1CC[C@H]2[C@@H](C)C(=O)O[C@@H]3O[C@@]4(C)CC[C@@H]1[C@]32OO4 [Artemisinin, artemisinin, reference compound]
P. berghei [5]; [16]
  average survival days: 2 to 3 days
[6]; [17]
  IC50: 0.0063 µg/mL (≈ 0.0223 µM)
Vero cells [11]
  Cytotoxicity TC50: >5,000 ng/mL
[8]; P. falciparum D6 clone, read-out: D6 Clone IC50
  IC50: 0.01 µg/mL (≈ 0.0354 µM)

## (+)-8-Hydroxymanzamine A
[12]
  cytotoxicity, reported: inactive
Vero cells [3]
  Cytotoxicity TC50: 320 ng/mL
M. tuberculosis (H37Rv); M. tuberculosis H37Rv
  MIC: <6.25 µg/mL
M. tuberculosis (H37Rv); [14]
  % Inhibition: 100%
[6]; P. falciparum W2 clone
  W2 Clone IC50: 0.008 µg/mL
[8]; P. falciparum D6 clone
  D6 Clone IC50: 0.006 µg/mL

## O[C@]12C=C(c3nccc4c3[nH]c3ccccc34)C3CCN(CCCC/C=C\CC1)C[C@@]31C[C@]34CC[C@H](CCCN3[C@H]12)O4 (some centres unmarked) [6-Deoxymanzamine X, 6-deoxymanzamine X]
M. tuberculosis (H37Rv); M. tuberculosis H37Rv
  MIC: <12.5 µg/mL
M. tuberculosis (H37Rv); [14]
  % Inhibition: 98%

## O[C@@H]1CCCN2CC[C@@H]1O[C@@]13CC[C@@H](OC[C@]45CN6CCCC/C=C\CC[C@](O)(C=C(c7nccc8c7[nH]c7ccccc78)[C@@H]4CC6)[C@H]25)[C@@H](O)CCN1[C@@H]1[C@]2(CN4CCCC/C=C\CC[C@]1(O)C=C(c1nccc5c1[nH]c1ccccc15)[C@@H]2CC4)C3 [neo-Kauluamine, neo-kauluamine]
M. tuberculosis (H37Rv); [14]
  % Inhibition: 44%
M. tuberculosis (H37Rv); [15]
  MIC: > 12.5 µg/mL
[13]
  IC50: 1 µg/mL (≈ 0.859 µM)

## O=C1CCCN2[C@H]3[C@]45CN6CCCC/C=C\CC[C@]3(C=C(c3nccc7c3[nH]c3c(O)cccc37)[C@H]4CC6)O[C@@]2(CC1)C5 [8-HOMA Metabolite 1]
M. tuberculosis (H37Rv); [14]
  % Inhibition: 98%
M. tuberculosis (H37Rv); [15]
  MIC: < 12.5 µg/mL
[9]
  cytotoxicity relative to the parent compounds: less cytotoxic than the parent compounds

## O=C1CCCN2[C@@H](CC1)C[C@]13CN4CCCC/C=C\CC[C@](O)(C=C(c5nccc6c5[nH]c5ccccc56)[C@@H]1CC4)[C@H]23 [Manzamine E]
M. tuberculosis (H37Rv); M. tuberculosis H37Rv
  MIC: 3.13 µg/mL (≈ 5.54 µM)
M. tuberculosis (H37Rv); [14]
  % Inhibition: 99%
Human PBM cells
  IC50: 35.5 µM
HIV-1 in human PBM cells; human PBM cells
  EC50: 18.7 µM

## O=C1CCCN2[C@@H](CC1)C[C@]13CN4CCCC/C=C\CC[C@](O)(C=C(c5nccc6c5[nH]c5c(O)cccc56)C1CC4)[C@H]23 (stereo partly drawn) [ent-Manzamine F, ent-manzamine F]
M. tuberculosis (H37Rv); M. tuberculosis H37Rv
  MIC: >12.5 µg/mL
Human PBM cells
  IC50: 40.8 µM
HIV-1 in human PBM cells; human PBM cells
  EC50: 94.8 µM

## Manzamine L
M. tuberculosis (H37Rv); M. tuberculosis H37Rv
  MIC: <12.5 µg/mL
M. tuberculosis (H37Rv); [14]
  % Inhibition: 99%

## 8,12-di-O-acetyl ent-8-hydroxymanzamine A [ent-8-Hydroxymanzamine A diAc]
M. tuberculosis (H37Rv); M. tuberculosis H37Rv
  MIC: <6.25 µg/mL
M. tuberculosis (H37Rv); [14]
  % Inhibition: 95%

## CCN(CC)CCCC(C)Nc1ccnc2cc(Cl)ccc12 (centres unmarked) [Chloroquine, chloroquine, reference compound]
Vero cells [3]
  Cytotoxicity TC50: >5,000 ng/mL
P. berghei [5]; P. berghei-infected mice
  reduction of parasitemia: comparable reduction of parasitemia
P. berghei [5]; in vivo, ip
  average survival days: 6 days
[6]; [17]
  IC50: 0.17 µg/mL (≈ 0.531 µM)
[8]; D6, read-out: D6 Clone IC50
  IC50: 0.0155 µg/mL (≈ 0.0485 µM)
